What was measured:
Assay in all cases: aequorin intracellular calcium assay, inhibition of ACh response
Type in all cases: cell-based
[1] = molecular target: human α3β4 nicotinic acetylcholine receptor (α3β4 nAChR) (Homo sapiens, UniProt P30926+P32297)
[2] = molecular target: human α3β4α5D nAChR (D398 variant of α5; α3β4α5N carries N398) (Homo sapiens, UniProt P30532+P30926+P32297, P30532:D398N)
[3] = molecular target: human α3β4α5D nAChR (D398 variant of α5; α3β4α5N carries N398) (Homo sapiens, UniProt P30532+P30926+P32297)

Chain of human α3β4 nicotinic acetylcholine receptor (α3β4 nAChR) (P32297 32-505): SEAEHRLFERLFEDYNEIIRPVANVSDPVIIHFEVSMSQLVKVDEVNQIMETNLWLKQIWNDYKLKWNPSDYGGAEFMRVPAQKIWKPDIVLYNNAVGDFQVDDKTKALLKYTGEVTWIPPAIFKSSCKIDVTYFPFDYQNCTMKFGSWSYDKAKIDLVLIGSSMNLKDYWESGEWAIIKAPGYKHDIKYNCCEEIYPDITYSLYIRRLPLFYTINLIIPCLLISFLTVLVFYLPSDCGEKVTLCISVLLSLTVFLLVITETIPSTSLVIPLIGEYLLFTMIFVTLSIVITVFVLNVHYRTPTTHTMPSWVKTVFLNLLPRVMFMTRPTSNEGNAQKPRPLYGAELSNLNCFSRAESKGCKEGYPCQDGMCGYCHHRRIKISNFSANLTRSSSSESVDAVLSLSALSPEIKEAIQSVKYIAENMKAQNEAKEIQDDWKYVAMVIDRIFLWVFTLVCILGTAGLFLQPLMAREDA
Chain of human α3β4 nicotinic acetylcholine receptor (α3β4 nAChR) (P30926 22-498): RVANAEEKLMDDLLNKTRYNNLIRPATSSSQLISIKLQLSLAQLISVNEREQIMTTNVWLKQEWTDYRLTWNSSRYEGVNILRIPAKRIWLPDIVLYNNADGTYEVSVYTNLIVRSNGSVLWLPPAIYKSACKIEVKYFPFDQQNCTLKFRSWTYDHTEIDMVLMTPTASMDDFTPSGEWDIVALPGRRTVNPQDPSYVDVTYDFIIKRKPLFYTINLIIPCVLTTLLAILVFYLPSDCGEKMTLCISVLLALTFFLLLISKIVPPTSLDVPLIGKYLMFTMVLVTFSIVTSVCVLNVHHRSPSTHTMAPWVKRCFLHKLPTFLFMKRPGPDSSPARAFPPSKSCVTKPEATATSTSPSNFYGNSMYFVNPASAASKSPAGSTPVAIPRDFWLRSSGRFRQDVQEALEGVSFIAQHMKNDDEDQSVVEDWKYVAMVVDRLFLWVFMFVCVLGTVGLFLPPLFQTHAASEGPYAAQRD
Chain of human α3β4α5D nAChR (D398 variant of α5; α3β4α5N carries N398) (Homo sapiens, UniProt P30532+P30926+P32297, P30532:D398N) (P32297 32-505): as the sequence (P32297 32-505) above
Chain of human α3β4α5D nAChR (D398 variant of α5; α3β4α5N carries N398) (Homo sapiens, UniProt P30532+P30926+P32297, P30532:D398N) (P30926 22-498): as the sequence (P30926 22-498) above
Chain of human α3β4α5D nAChR (D398 variant of α5; α3β4α5N carries N398) (Homo sapiens, UniProt P30532+P30926+P32297, P30532:D398N) (P30532 23-468 D398N): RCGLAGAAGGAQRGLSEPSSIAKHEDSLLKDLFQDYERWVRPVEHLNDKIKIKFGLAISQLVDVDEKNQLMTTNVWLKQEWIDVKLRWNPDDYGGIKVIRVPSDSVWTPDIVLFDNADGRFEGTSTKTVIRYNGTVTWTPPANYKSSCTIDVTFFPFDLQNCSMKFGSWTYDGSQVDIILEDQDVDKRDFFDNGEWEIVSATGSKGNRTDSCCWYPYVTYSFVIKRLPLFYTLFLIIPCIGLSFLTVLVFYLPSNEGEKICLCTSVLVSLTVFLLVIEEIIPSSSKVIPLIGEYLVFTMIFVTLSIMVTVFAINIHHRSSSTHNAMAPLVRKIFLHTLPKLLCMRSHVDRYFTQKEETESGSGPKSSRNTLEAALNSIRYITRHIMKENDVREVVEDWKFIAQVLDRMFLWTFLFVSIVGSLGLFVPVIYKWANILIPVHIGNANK

| Structure (SMILES) | IC50 [1] | IC50 [2] | IC50 [3] |
| --- | --- | --- | --- |
| COc1cc2c3cc1Oc1cc(ccc1O)C[C@@H]1c4c(cc(OC)c(O)c4Oc4ccc(cc4)C[C@@H]3N(C)CC2)CC[N+]1(C)C [D-Tubocurarine] | 1010 ± 240 nM | 640 ± 150 nM | 940 ± 210 nM |
| CCCCCCC(=O)OC1CC(C)(C)NC(C)(C)C1 [TMPH, 2,2,6,6-tetramethylpiperidin-4-yl heptanoate] | 830 ± 100 nM | 450 ± 40 nM | 360 ± 20 nM |
